Laboratory results: paper PMC4871480, “A Miniaturized Screen of a Schistosoma mansoni Serotonergic G Protein-Coupled Receptor Identifies Novel Classes of Parasite-Selective Inhibitors” (PLoS Pathogens, 2016)
“Also recorded” adds a separate entry of the source. Read-outs that look alike come from different tables or passages of the source.

What was measured:
[1] = target: Sm.5HTRL (Schistosoma mansoni, UniProt A0A173FEI8); experiment: GloSensor cAMP assay in HEK293 cells expressing Sm.5HTRL; assay type: cell-based; conditions: for inhibition of 5-HT evoked cAMP generation through Sm.5HTRL: antagonists 10μM, 5-HT EC80 dose
Method: (§1) HEK293 cells (ATCC CRL-1573.3) were cultured in DMEM supplemented with 10% fetal bovine serum (FBS), penicillin (100 units/ml), streptomycin (100 μg/ml), and L-glutamine (290 μg/ml). Cells were transiently transfected (ViaFect, Promega) as per the manufacturer’s protocol at a density of 2x10^6 cells per T-25 cell-culture flask. Cells were transfected with plasmids encoding GloSensor (Promega) and either Sm.5HTR (Smp_126730, GenBank accession number KF444051.1) or Sm.5HTRL (KX150867), bothGPCRs being codon optimized for mammalian expression, or Hs.5HT7a (GenBank accession number NM_000872.4, R&D Systems) subcloned into pCS2(-). Cell culture reagents were from Invitrogen. Epitope tagged constructs were used to verify expression, and untagged constructs used for all luminescence assays.
(§2) For assays performed on adherent cells, HEK-293 cells were transferred one day post transfection to 96 well, solid white plates (Corning, cat # 3917) coated with 0.01% poly-L-lysine (Sigma Aldrich) at a density of 5 x 10^4 cells / well in DMEM supplemented with 1% dialyzed FBS (Gibco). After overnight culture (37°C/5% CO2), media was decanted and replaced with 100μL / well HBSS supplemented with 0.1% BSA, 20mM HEPES (pH 7.4) and GloSensor reagent. Plates were allowed to equilibrate at room temperature for two hours prior to performing luminescence assays (GloMax-Multi Detection System plate reader, Promega). Conditions for individual assays were described as per figure legends. The standard assay to detect changes in cAMP utilized the F22 sensor in media supplemented with IBMX (200μM). Ligands were added at a concentration of 20x per well for experiments (i.e. 5μl of drug solution added to 100μl of cells). […] For the resazurin reduction assay for cellular viability, cells were incubated with resazurin (final concentration, 10μM) and tested ligands with fluorescence measurements (560 nm excitation/590 nm emission) made at 1.5hr intervals.

[2] = test system: S. mansoni schistosomules; experiment: Schistosomule contractility assay; assay type: in vivo, Schistosoma mansoni
Method: Biomphalaria glabrata (M-line) snails exposed to Schistosoma mansoni miracidia (Strain PR-1) were obtained from BEI Resources (Cat. number NR-21961) and cercaria were shed following exposure to light (1.5 hours). Cercaria were manually transformed into schistosomula by vortexing (3 x 45 seconds, each separated by 3 minutes on ice) and tails were removed by gradient centrifugation (24ml Percoll, 4ml 10X EMEM, 1.5ml penicillin-streptomycin, 1ml of 1M HEPES in 0.85% NaCl, 9.5ml distilled water) at 500g/15min at 4°C. Supernatant containing tails was discarded, and schistosomules were resuspended in Basch media and incubated (37°C, 5% CO2) overnight before conducting mobility assays. For contractility experiments, somules were incubated in 5-HT free Basch media to resolve a basal contractility rate. […] Schistosomules were incubated in 24 well plates (~200 schistosomules / 0.5mL media per well) for 30 minutes (37°C/5% CO2) prior to acquiring videos of schistosome movement (1 minute recordings / well) using a Nikon Coolpix 5700 camera affixed to a Nikon Eclipse TS100 microscope (10x objective). The WrmTrck plugin for ImageJ was used to quantify worm mobility. Briefly, the major axis of each schistosomule body length was extracted from the raw output of WrmTrck and an average length was determined for the duration of the recording. Contractions were quantified by determining the number of episodes during which the worm body length deviated from the average by over 20%. S. mansoni protocols were approved by the Iowa State University Institutional Biosafety Committee.

[3] = test system: adult schistosomes; experiment: Adult schistosome mobility assay; assay type: in vivo, Schistosoma mansoni
Method: Female Swiss Webster mice exposed to Schistosoma mansoni cerceria (Strain PR-1) at 5–7 weeks old were obtained from BEI Resources (Cat. number NR-34792) and sacrificed 6–8 weeks post-infection. Mature S. mansoni were harvested from the mesenteric vasculature by portal perfusion. Briefly, mice were anesthetized in a CO2 chamber and sacrificed by cervical dislocation. Mice were perfused with sodium citrate (25mM) and adult schistosomes were harvested from the mesenteric veins. Schistosomes were washed in RPMI media containing penicillin (1000 units/mL), streptomycin (1000 μg/mL) and 25mM HEPES, then transferred to RPMI media supplemented with 2mM glutamine and 5% heat inactivated FBS. Worms were incubated overnight at 37°C, 5% CO2 before conducting assays. Recordings of adult schistosome movement were captured using a Zeiss Discovery v20 stereomicroscope and a QiCAM 12-bit cooled color CCD camera. Videos were acquired at a rate of four frames per second for one minute. Recordings of female worms were acquired at 7.6x magnification, 30 mm field of view and recordings of male worms were acquired at a 5.1x magnification, 45 mm field of view. Analysis was performed in ImageJ as described previously. Briefly, image (.tiff) stacks of each recording were imported and processed by converting to binary format so that pixel measurements represent area of the worms’ bodies. Mobility was quantified by measuring the difference in pixels resulting from subtracting the value of one frame (n) from those of the next frame in the sequence (n+1). This difference was expressed as a percentage of the pixels in the initial frame (n), providing a measurement of the worms’ movement over a period of 0.25 seconds. This calculation was performed for each frame in the video, and the results were averaged over the length of the recording. Values reported represent the mean (±) standard error of at least three independent experiments. Animal work was carried out with the oversight and approval of the Laboratory Animal Resources facility at the Iowa State University College of Veterinary Medicine.

[4] = target: T1, Sm.5HTR (Schistosoma mansoni, UniProt G4V5G4); experiment: cell-based; assay type: cell-based; conditions: for ligand type at Sm.5HTR: Fig 5F; for Emax: HEK293, read-out: 5-HT Emax; for GPCR inhibition profile compared with rotundine: Sm.5HTR vs Hs.5HT7R, Fig F in S1 Text; for activity at Sm.5HTR: antagonist/modulator screening; for agonist efficacy at Sm.5HTR: dose response, Fig 5A; for potency (IC50) at Sm.5HTR: Fig 7 quadrant
Method: as §1, §2

[5] = target: T2, Hs.5HT7R (Homo sapiens, UniProt P34969); experiment: GloSensor cAMP assay in HEK293 cells expressing Hs.5HT7R; assay type: cell-based; conditions: for potency (IC50) at Hs.5HT7R: Fig 7 quadrant
T2 construct: host or cells: HEK293 (ATCC CRL-1573.3), transient transfection, pCS2(-) vector
Method: as §1, §2

[6] = target: T1, Sm.5HTR; experiment: Antagonist washout (inactivating antagonist) GloSensor assay on suspension cells; assay type: cell-based; conditions: for inhibition of Sm.5HTR after antagonist wash-out: 10μM for 30 mins, washout, 5-HT response 1hr later
Method: To test putative irreversible antagonists, assays on suspension cells were performed one day post transfection. […] Compounds were added at 10 μM, and after 30 minute incubation at room temperature cells were centrifuged (300 RCF, 5 minutes) and resuspended in fresh media. This wash step was repeated, and cells were resuspended in HBSS supplemented with 0.1% BSA, 20mM HEPES and GloSensor reagent. Cells were gently rotated to prevent aggregation and settling over the course of the two hour equilibration period, after which time they were transferred to 96 well plates at a density of 8 x 10^4 cells / 100μL per well and assays described for adherent cells.

[7] = EC50 (agonist, cAMP generation), F22 sensor with IBMX
[8] = IC50 (Hs.5HT7R) / IC50 (Sm.5HTR)

T2 sequence (P34969 1-445 isoform P34969-2): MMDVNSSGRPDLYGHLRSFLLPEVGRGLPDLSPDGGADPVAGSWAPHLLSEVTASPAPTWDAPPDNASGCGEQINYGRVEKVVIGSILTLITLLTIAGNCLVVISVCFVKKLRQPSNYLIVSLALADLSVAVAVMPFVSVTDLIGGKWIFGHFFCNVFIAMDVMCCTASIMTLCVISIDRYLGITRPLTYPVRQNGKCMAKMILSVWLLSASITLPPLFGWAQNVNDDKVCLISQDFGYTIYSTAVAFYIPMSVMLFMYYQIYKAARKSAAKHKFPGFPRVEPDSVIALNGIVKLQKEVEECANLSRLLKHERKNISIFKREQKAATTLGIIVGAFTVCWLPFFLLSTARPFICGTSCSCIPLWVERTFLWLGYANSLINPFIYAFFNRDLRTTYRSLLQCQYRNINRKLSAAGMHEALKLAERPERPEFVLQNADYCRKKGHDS
Sequence of Sm.5HTRL (A0A173FEI8 entry or part of it): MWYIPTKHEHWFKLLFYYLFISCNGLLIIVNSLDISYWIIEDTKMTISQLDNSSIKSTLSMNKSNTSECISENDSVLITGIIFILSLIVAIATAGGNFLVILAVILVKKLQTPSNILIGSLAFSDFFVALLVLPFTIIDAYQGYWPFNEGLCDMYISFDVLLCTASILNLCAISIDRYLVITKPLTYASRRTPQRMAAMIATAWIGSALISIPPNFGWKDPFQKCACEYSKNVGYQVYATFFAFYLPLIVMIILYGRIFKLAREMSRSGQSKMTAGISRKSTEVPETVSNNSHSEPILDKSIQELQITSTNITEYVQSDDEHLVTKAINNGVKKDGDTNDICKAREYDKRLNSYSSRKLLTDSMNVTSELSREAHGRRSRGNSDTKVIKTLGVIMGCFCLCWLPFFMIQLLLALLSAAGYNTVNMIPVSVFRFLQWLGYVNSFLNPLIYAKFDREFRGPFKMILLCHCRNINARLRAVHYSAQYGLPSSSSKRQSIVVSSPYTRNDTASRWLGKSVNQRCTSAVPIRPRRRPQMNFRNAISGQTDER
T1 sequence (G4V5G4 entry or part of it): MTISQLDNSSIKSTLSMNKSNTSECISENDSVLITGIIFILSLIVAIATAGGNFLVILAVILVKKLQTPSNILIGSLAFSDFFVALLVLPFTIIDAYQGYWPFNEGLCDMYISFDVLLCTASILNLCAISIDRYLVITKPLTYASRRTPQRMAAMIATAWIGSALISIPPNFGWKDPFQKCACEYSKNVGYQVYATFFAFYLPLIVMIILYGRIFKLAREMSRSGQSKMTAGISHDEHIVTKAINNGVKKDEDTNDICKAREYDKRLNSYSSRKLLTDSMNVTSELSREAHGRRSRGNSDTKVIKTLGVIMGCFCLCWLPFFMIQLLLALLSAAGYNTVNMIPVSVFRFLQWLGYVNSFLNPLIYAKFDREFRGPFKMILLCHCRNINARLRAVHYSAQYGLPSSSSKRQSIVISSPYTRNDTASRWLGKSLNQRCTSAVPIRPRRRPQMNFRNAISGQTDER

NCCc1c[nH]c2ccc(O)cc12 [5-HT, Serotonin]
EC50 ([1]; F22 sensor with IBMX, read-out: EC50 (cAMP generation, Sm.5HTRL)): 200 ± 30 nM | EC80 ([1]; HEK293): 800 nM | greater sensitivity of Sm.5HTRL vs Sm.5HTR ([1]; ratio of 5-HT EC50 values): ~ 10 fold | effect on basal contractile rate of schistosomules ([2]; exogenous addition, dose-dependent): increase in the basal contractile rate | effect on movement of unpaired male and female worms ([3]; 5-HT application): significantly increased the movement

CN1C[C@H](C(=O)N[C@]2(C)O[C@@]3(O)[C@@H]4CCCN4C(=O)[C@H](Cc4ccccc4)N3C2=O)C[C@@H]2c3cccc4[nH]cc(c34)C[C@H]21 [dihydroergotamine]
EC50 [4, 7]: 315 nM | ligand type at Sm.5HTR [4]: Agonist | Emax [4]: 52 ± 1% | EC50 ([4]; pEC50 ± S.E.M): 316 nM

COc1ccc2cc3[n+](cc2c1OC)CCc1cc2c(cc1-3)OCO2 [berberine]
GPCR inhibition profile compared with rotundine [4]: decreased potency and selectivity for Sm.5HTR

O=S(=O)(c1ccccc1)c1cnc2c(N3CCNCC3)cccc2c1 [SB742457]
activity at Sm.5HTR [4]: completely lacked activity; also recorded: modest effects | inhibition of Hs.5HT7R ([5]; Fig 4): potent inhibitors

CNCCC(Oc1ccc(C(F)(F)F)cc1)c1ccccc1 (stereo not shown) [fluoxetine]
selectivity for Sm.5HTR over Hs.5HT7R [4, 8]: preferential selectivity toward Sm.5HTR

Cc1nc2n(c(=O)c1CCN1CCC(c3noc4cc(F)ccc34)CC1)CCCC2 [risperidone]
acute inhibition of 5-HT (10μM) response at Sm.5HTR [4]: Inhibition of 5-HT response | inhibition of Sm.5HTR after antagonist wash-out [6]: long-lasting inhibition

CN1C[C@H](C(=O)N[C@]2(C)O[C@@]3(O)[C@@H]4CCCN4C(=O)[C@H](Cc4ccccc4)N3C2=O)C=C2c3cccc4[nH]cc(c34)C[C@H]21 [ergotamine]
EC50 [4, 7]: 232 nM | ligand type at Sm.5HTR [4]: Agonist | Emax [4]: 78 ± 2% | EC50 ([4]; pEC50 ± S.E.M): 229 nM

CCN(CC)C(=O)[C@@H]1C=C2c3cccc4[nH]cc(c34)C[C@H]2N(C)C1 [LSD, lysergic acid diethylamide]
ligand type at Sm.5HTR [4]: Antagonist | Kb ([4]; KB (affinity constant, Schild regression), right-shift of 5-HT dose-response): 629 nM | inhibition of 5-HT evoked cAMP generation ([4]; at higher concentrations (>10μM)): almost complete inhibition | agonist efficacy at Sm.5HTR [4]: no efficacy | Kb ([4]; pKB ± S.E.M, Schild regression): 631 nM

CN1CCC(=C2c3ccccc3C=Cc3ccccc32)CC1 [cyproheptadine]
acute inhibition of 5-HT (10μM) response at Sm.5HTR [4]: acutely inhibited | time to full reversal of inhibition after ligand removal ([6]; 10μM, 30 mins preincubation): ≤ 1 h

COc1ccc2cc1Oc1ccc(cc1)C[C@H]1c3cc(c(OC)cc3CCN1C)Oc1c(OC)c(OC)cc3c1[C@H](C2)N(C)CC3 [tetrandrine]
potency (IC50) at Sm.5HTR [4]: sub-μM potency | potency (IC50) at Hs.5HT7R [5]: supra-μM potency | IC50 ([2]; Schistosoma mansoni, read-out: IC50 (inhibition of 5-HT evoked contractions)): ≤ 1000 nM | effect on 5-HT evoked increases in worm movement ([3]; 10μM, 5-HT 100μM): lacked an inhibitory effect | effect on basal movement of adult worms ([3]; 10μM, worms at rest): enhanced movements of isolated female worms

COc1cc2nc(N(C)CCCNC(=O)C3CCCO3)nc(N)c2cc1OC (stereo not shown) [alfuzosin]
selectivity for Sm.5HTR over Hs.5HT7R [4, 8]: clear selectivity for Sm.5HTR; also recorded: clear bias toward Sm.5HTR | inhibition of 5-HT evoked cAMP generation through Sm.5HTRL [1]: inhibited 5-HT evoked cAMP generation

CC1CCN(CC[C@H]2CCCN2S(=O)(=O)c2cccc(O)c2)CC1 [SB269970]
activity at Sm.5HTR [4]: modest effects | activity at Sm.5HTR ([4]; listed as SB 269970): completely lacked activity

O=C(C1CCCCC1)N1CC(=O)N2CCc3ccccc3C2C1 (stereo not shown) [Praziquantel, praziquantel]
ligand type at Sm.5HTR [4]: Inactive | activity at Sm.5HTR ([4]; listed as PZQ): did not reveal any modulation of receptor activity; also recorded: did not yield any effect

COc1cc2c(cc1OC)C1CC(=O)C(CC(C)C)CN1CC2 (stereo not shown) [tetrabenazine]
potency (IC50) at Sm.5HTR [4]: sub-μM potency | GPCR inhibition profile compared with rotundine [4]: selectivity for Sm.5HTR retained | potency (IC50) at Hs.5HT7R [5]: supra-μM potency | inhibition at 100 µM ([2]; Schistosoma mansoni, read-out: inhibition of 5-HT evoked contractility): ~50%

CNCC[C@@H](Oc1ccccc1C)c1ccccc1 [atomoxetine]
selectivity for Sm.5HTR over Hs.5HT7R [4]: clear selectivity for Sm.5HTR; also recorded: preferential selectivity toward Sm.5HTR | inhibition of 5-HT evoked cAMP generation through Sm.5HTRL [1]: inhibited 5-HT evoked cAMP generation

CCN1CCCC1CNC(=O)c1cc(S(=O)(=O)CC)c(N)cc1OC (stereo not shown) [amisulpride]
activity at Sm.5HTR [4]: modest effects

CN1C[C@H](CNC(=O)OCc2ccccc2)C[C@@H]2c3cccc4c3c(cn4C)C[C@H]21 [metergoline]
ligand type at Sm.5HTR [4]: Antagonist | Kb ([4]; Schild regression, read-out: pKB ± S.E.M (converted)): 4570 nM | agonist efficacy at Sm.5HTR [4]: no efficacy | acute inhibition of 5-HT (10μM) response at Sm.5HTR ([4]; drug 10μM, preincubation): Inhibition of 5-HT response | Kb ([4]; right-shift of 5-HT dose-response, read-out: KB (affinity constant, Schild regression)): 4530 nM | inhibition of Sm.5HTR after antagonist wash-out [6]: long-lasting inhibition

COc1cc2c(cc1OC)-c1cc3ccc(OC)c(OC)c3c[n+]1CC2 [palmatine]
GPCR inhibition profile compared with rotundine [4]: decreased potency and selectivity for Sm.5HTR

CSc1ccc2c(c1)C(N1CCN(C)CC1)Cc1ccccc1S2 (stereo not shown) [methiothepin]
acute inhibition of 5-HT (10μM) response at Sm.5HTR ([4]; drug 10μM, preincubation): antagonism of 5-HT stimulated cAMP generation; also recorded: Inhibition of 5-HT response | inhibition of Sm.5HTR after antagonist wash-out [6]: long-lasting inhibition | potency for Sm.5HTR inhibition after washout ([6]; titration, Fig 6E): most potent

CN1CCN(C2=Nc3cc(Cl)ccc3Nc3ccccc32)CC1 [clozapine]
acute inhibition of 5-HT (10μM) response at Sm.5HTR [4]: Inhibition of 5-HT response
